In test [1] the test system is Hin riboswitch WT (RNA, riboswitch) GUAGUUCGCAAACCUCCUACAAUAAAAAACUAG
The experiment in a line: ITC (PEAQ-ITC, single-sites model). The following applies: 100 mM Na+ (NaCl), 4 mM Mg2+; 50 mM Na-HEPES pH 7.0, 25 °C; apparent; average over two cooperative sites.

Test [2] relates to Ngo riboswitch WT (RNA, riboswitch) CGCGGUUCGCAAACCUCCCGCGUUACCAAAACUAG
The experiment in a line: ITC (PEAQ-ITC, single-sites model). The note with it: 100 mM Na+ (NaCl), 4 mM Mg2+; 50 mM Na-HEPES pH 7.0, 25 °C; apparent; average over two cooperative sites.

Test [3] has as its system Can preQ1-II riboswitch WT (RNA, riboswitch) UGUGGUUCGCAACCAUCCCACAUAAAAAAACUAG
The test is described as follows: X-ray crystallography, 2.60 Å. The note with it: 80 mM K+ (KCl), 12 mM Na+ (NaCl), 2 mM hexammine cobalt(III); 40 mM sodium cacodylate pH 5.5, 30% MPD, 20 °C; folded with Mg2+.

For test [4], the system named is Can preQ1-II riboswitch C31U (RNA, riboswitch) UGUGGUUCGCAACCAUCCCACAUAAAAAAAUUAG
The test is described as follows: ITC (VP-ITC, two interdependent non-equivalent sites model). The following applies: 100 mM Na+ (NaCl), 4 mM Mg2+; 50 mM Na-HEPES pH 7.0, 25 °C; macroscopic, first binding event (KD2 10.26 µM).

The subject of test [5] is Can preQ1-II riboswitch WT (RNA, riboswitch) UGUGGUUCGCAACCAUCCCACAUAAAAAAACUAG
The test is described as follows: ITC (PEAQ-ITC, single-sites model). The following applies: 100 mM Na+ (NaCl), 4 mM Mg2+; 50 mM Na-HEPES pH 7.0, 25 °C; apparent; average over two cooperative sites.

The test system of test [6] is Can preQ1-II riboswitch C17U (RNA, riboswitch) UGUGGUUCGCAACCAUUCCACAUAAAAAAACUAG
The experiment in a line: ITC (VP-ITC, two interdependent non-equivalent sites model). The note with it: 100 mM Na+ (NaCl), 4 mM Mg2+; 50 mM Na-HEPES pH 7.0, 25 °C; macroscopic, second binding event (KD1 3.13 µM).

With `NCc1c[nH]c2nc(N)[nH]c(=O)c12`, the “KD, app” value in test [1] came to 52.9 ± 0.2 nM; in test [2], 50.5 ± 1.3 nM; in test [5], 32.0 ± 2.0 nM. Further, the binding entry in test [3] is given as “yes”. In addition, the KD1 in test [4] is 6.64 µM. Also, in test [6], the KD2 was determined as 1.30 µM.

(Values after paper PMC8752633 (2022).)
